Measured values: patent US20250215012A1, “IKZF2 DEGRADERS AND USES THEREOF” (REGENTS OF THE UNIVERSITY OF MICHIGAN, priority 2022, published 2025)

Key:
[1] = target: His tagged CRBN+DDB−DLS7+CXU4 (Homo sapiens (Human), UniProt Q96SW2); test: IC50 Measurements for Binding to CRBN/DDBI (HTRF); details: Cy5-labeled Thalidomide probe, one hour incubation
IKZF2 = IKZF2 (Homo sapiens (Human), UniProt Q96SW2+Q9UKS7); test: IKZF2 HiBit Assay (HEK293T Flp-in-HiBiT cells); format: cell-based; details: HEK293T Flp-in-HiBiT cells, 6 hrs; for DC50: read-out: IKZF2 HiBit degradation DC50; for Dmax: HEK-293T, read-out: IKZF2 HiBit degradation Dmax
Description: The HiBiT protein tagging system was applied to modified HEK293T Flp-in-HiBiT cells (polyclone) via a CRISPR/Cas9—mediated insertion of the HiBiT peptide tag (Promega™) to the N-terminus of the IKZF2 gene locus (Neon™ transfection system). Test and reference compounds are diluted from 1 mM at 3 folds for 11 doses. 25 nL of diluted compound is transferred to assay plates (Corning3570) using ECHO550, the final DMSO concentration @0.1%. The cells are seeded in 3000/[…]/well to compound plates. It is then incubated for 6 hrs in TC incubator. The amount of Nano-Glo® HiBiT lytic reagent needed to perform the desired experiments is calculated. The Nano-Glo® HiBiT lytic reagent is brought to room temperature. The LgBiT protein is diluted to 1:100 and the Nano-Glo® HiBiT lytic substrate is diluted to 1:50 into an appropriate volume of room temperature Nano-Glo® HiBiT lytic buffer. […] of the detection reagent (or without LgBiT) is dispensed to corresponding well according to the layout. The plate is then shaked for 10 mins at room temperature. After briefly centrifuge, the plate is read on Envision. At the indicated timepoints, the Nano-Glo® HiBiT lytic detection system (Promega™) was utilized for detecting bioluminescence of the HiBiT tag in treated cells: abundance of the tag is proportionate to the level of luminescence. Following normalization to DMSO, dose-response curves were plotted (GraphPad Prism) to determine the concentration points at which 50% of HiBiT-Helios degradation was achieved by each compound. The extent of degradation (range of luminescence) from the highest to lowest concentration points was calculated to determine the Dmax.

IKZF1 = IKZF1 (Homo sapiens (Human), UniProt Q13422+Q96SW2); test: IKZF1 HiBit Assay (HEK293T Flp-in-HiBiT-IKZF1 stable cell line); format: cell-based; details: HEK293T Flp-in-HiBiT-IKZF1 cells, 6 hrs; for DC50: read-out: IKZF1 HiBit degradation DC50; for Dmax: HEK-293T, read-out: IKZF1 HiBit degradation Dmax
Description: The HiBiT protein tagging system was applied to modified Cells: modified HEK293T Flp-in-HiBiT-IKZF1 stable cell line (polyclone) via a CRISPR/Cas9—mediated insertion of the HiBiT peptide tag (Promega™) to the N-terminus of the IKZF2 gene locus (Neon™ transfection system).
Test compound from 10 mM and reference compound (CC-92480 from 50 mM and I-57 from 10 mM) are diluted at 3 folds for 11 doses. 25 nL of diluted compound is transferred to assay plates (Corning3571) using ECHO550, the final DMSO concentration @0.1%. The cells are seeded in 3000/[…]/well to compound plates. The plates are incubated for 6 hrs in TC incubator. The amount of Nano-Glo® HiBiT lytic reagent needed to perform the desired experiments is calculated. The Nano-Glo® HiBiT lytic reagent is brought to room temperature. The LgBiT protein is diluted to 1:100 and the Nano-Glo® HiBiT lytic substrate is brought to 1:50 into an appropriate volume of room temperature Nano-Glo® HiBiT lytic buffer. […] of the detection reagent (or without LgBiT) is dispensed to corresponding well according to the layout. The plate is shaked for 10 mins at room temperature. After briefly centrifuging, the plate is read on Envision. At the indicated timepoints, the Nano-Glo® HiBiT lytic detection system (Promega™) was utilized for detecting bioluminescence of the HiBiT tag in treated cells: abundance of the tag is proportionate to the level of luminescence. Following normalization to DMSO, dose-response curves were plotted (GraphPad Prism) to determine the concentration points at which 50% of HiBiT-Ikaros degradation was achieved by each compound. The extent of degradation (range of luminescence) from the highest to lowest concentration points was calculated to determine the Dm.

His tagged CRBN+DDB−DLS7+CXU4, sequence (Q96SW2 whole entry): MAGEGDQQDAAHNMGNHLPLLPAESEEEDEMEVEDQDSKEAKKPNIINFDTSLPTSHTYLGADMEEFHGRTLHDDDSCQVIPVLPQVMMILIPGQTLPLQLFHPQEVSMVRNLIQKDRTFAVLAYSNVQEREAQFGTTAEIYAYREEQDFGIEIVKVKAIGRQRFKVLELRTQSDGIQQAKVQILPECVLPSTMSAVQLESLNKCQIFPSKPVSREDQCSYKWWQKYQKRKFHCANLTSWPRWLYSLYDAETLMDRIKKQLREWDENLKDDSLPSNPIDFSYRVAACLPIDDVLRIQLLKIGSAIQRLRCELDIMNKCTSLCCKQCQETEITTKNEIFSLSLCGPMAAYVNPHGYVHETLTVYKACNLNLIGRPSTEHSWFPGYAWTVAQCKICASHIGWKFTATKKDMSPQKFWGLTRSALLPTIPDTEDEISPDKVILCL
His tagged CRBN+DDB−DLS7+CXU4, sequence (Q16531 whole entry partner): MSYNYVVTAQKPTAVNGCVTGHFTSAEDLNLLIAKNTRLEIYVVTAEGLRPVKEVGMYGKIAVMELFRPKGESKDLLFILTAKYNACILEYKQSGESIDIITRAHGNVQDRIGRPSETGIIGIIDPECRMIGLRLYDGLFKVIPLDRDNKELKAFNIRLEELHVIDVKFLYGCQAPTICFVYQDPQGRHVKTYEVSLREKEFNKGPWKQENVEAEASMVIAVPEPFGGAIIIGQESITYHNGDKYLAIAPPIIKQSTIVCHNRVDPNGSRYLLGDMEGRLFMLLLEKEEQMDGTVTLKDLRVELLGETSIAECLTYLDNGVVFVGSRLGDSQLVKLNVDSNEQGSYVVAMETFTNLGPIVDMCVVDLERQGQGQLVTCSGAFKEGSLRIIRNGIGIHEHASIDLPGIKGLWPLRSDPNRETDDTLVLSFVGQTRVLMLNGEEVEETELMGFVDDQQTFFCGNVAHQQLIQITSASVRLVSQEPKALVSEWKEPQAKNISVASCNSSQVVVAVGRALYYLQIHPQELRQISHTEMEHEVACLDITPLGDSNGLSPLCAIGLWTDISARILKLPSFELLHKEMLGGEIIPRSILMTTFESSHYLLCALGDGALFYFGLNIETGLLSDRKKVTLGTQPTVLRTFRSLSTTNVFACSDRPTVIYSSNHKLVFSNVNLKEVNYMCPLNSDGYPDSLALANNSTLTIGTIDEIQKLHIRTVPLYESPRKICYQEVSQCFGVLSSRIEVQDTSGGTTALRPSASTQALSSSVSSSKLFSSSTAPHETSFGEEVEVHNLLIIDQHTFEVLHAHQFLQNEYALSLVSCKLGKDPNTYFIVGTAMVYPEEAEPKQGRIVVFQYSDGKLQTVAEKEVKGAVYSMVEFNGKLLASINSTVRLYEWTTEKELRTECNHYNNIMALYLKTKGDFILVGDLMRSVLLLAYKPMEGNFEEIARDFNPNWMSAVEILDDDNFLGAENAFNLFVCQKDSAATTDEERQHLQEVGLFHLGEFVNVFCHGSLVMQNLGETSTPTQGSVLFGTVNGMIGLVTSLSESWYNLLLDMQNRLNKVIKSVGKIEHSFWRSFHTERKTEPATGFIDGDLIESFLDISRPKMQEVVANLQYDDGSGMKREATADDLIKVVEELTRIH
IKZF2, sequence (Q9UKS7 whole entry): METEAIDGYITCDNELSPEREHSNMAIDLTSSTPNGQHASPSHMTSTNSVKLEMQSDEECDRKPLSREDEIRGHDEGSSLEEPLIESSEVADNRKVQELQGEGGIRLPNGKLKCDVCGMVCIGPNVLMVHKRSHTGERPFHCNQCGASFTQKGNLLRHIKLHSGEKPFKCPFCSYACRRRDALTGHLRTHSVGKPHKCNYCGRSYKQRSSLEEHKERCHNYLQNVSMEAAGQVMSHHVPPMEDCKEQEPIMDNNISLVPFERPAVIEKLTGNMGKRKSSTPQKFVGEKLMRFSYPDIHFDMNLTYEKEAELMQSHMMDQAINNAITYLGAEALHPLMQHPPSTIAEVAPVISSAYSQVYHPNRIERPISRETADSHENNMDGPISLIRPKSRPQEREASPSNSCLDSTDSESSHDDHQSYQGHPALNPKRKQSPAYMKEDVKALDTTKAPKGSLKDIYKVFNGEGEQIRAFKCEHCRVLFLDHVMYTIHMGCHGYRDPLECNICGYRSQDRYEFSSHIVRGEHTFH
IKZF2, sequence (Q96SW2 whole entry): as the sequence (Q96SW2 whole entry) above
IKZF2, sequence (Q16531 whole entry partner): as the sequence (Q16531 whole entry partner) above
IKZF1, sequence (Q13422 whole entry): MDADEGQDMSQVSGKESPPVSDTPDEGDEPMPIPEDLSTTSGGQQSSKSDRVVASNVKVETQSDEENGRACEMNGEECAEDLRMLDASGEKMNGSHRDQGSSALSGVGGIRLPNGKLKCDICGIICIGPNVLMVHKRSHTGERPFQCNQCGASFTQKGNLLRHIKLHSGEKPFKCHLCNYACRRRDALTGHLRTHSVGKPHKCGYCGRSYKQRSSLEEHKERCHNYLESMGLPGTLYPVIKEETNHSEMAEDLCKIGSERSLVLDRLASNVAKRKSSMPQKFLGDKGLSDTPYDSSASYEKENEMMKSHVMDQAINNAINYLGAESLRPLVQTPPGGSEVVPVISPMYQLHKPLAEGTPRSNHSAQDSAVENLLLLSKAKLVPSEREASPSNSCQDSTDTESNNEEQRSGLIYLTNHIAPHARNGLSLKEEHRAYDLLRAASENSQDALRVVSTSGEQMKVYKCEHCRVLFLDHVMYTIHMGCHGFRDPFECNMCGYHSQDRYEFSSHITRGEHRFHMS
IKZF1, sequence (Q96SW2 whole entry): as the sequence (Q96SW2 whole entry) above
IKZF1, sequence (Q16531 whole entry partner): as the sequence (Q16531 whole entry partner) above

[2H]C([2H])(c1cccc(-c2cnn(C([2H])([2H])[2H])c2)c1)N1CCC2(COc3c2ccc2c3CN([C@H]3CCC(=O)NC3=O)C2=O)C(F)(F)C1 (stereo partly drawn) [Compound B48, (3S)-3-(3′,3′-difluoro-1′-((3-(1-(methyl-d3)-1H-pyrazol-4-yl)phenyl)methyl-d2)-6-oxo-6,8-dihydro-2H,7H-spiro[furo[2,3-e]isoindole-3,4′-piperidin]-7-yl)piperidine-2,6-dione]
IC50 [1]: 100 to 500 nM
DC50 (IKZF2): < 1 nM
Dmax (IKZF2): 60 to 80%
DC50 (IKZF1): > 1000 nM
Dmax (IKZF1): < 20%

O=C1CC[C@H](N2Cc3c(ccc4c3OCC43CCN(Cc4cc(-c5ccc(Cl)cc5)ns4)CC3)C2=O)C(=O)N1 [Compound B3, (S)-3-(1′-((3-(4-chlorophenyl)isothiazol-5-yl)methyl)-6-oxo-6,8-dihydro-2H,7H-spiro[furo[2,3-e]isoindole-3,4′-piperidin]-7-yl)piperidine-2,6-dione]
IC50 [1]: < 100 nM
DC50 (IKZF2): 10 to 100 nM
Dmax (IKZF2): 60 to 80%
DC50 (IKZF1): > 1000 nM
Dmax (IKZF1): < 20%

(3S)-3-(3′,3′-difluoro-1′-((1-methyl-1H-indazol-6-yl)methyl)-3-oxo-1,3,7,8-tetrahydro-2H-spiro[cyclopenta[e]isoindole-6,4′-piperidin]-2-yl)piperidine-2,6-dione [Compound B34]
IC50 [1]: 100 to 500 nM
IKZF2 HiBit degradation Dmax (IKZF2): B (B: 60-80%)
DC50 (IKZF2): 1 to 10 nM
IKZF1 HiBit degradation Dmax (IKZF1): C (C: <20%)
DC50 (IKZF1): > 1000 nM

[2H]C([2H])(c1cccc(-c2cnn(C([2H])([2H])[2H])c2)c1)N1CCC2(CC1)COc1c2ccc2c1CN([C@H]1CCC(=O)NC1=O)C2=O [Compound B9, (S)-3-(1′-((3-(1-(methyl-d3)-1H-pyrazol-4-yl)phenyl)methyl-d2)-6-oxo-6,8-dihydro-2H,7H-spiro[furo[2,3-e]isoindole-3,4′-piperidin]-7-yl)piperidine-2,6-dione]
IC50 [1]: < 100 nM
DC50 (IKZF2): 1 to 10 nM
Dmax (IKZF2): 60 to 80%
DC50 (IKZF1): > 1000 nM
Dmax (IKZF1): < 20%

O=C1CC[C@H](N2Cc3c4c(cc(Cl)c3C2=O)C2(CCN(Cc3ccccc3)CC2)CO4)C(=O)N1 [Compound B17, (S)-3-(1′-benzyl-5-chloro-6-oxo-6,8-dihydro-2H,7H-spiro[furo[2,3-e]isoindole-3,4′-piperidin]-7-yl)piperidine-2,6-dione]
IC50 [1]: 500 to 1000 nM
DC50 (IKZF2): > 1000 nM
Dmax (IKZF2): < 20%
DC50 (IKZF1): > 1000 nM
Dmax (IKZF1): < 20%

O=C1CC[C@H](N2Cc3c(ccc4c3OCC43CCN(Cc4cccc5cn[nH]c45)CC3(F)F)C2=O)C(=O)N1 (stereo partly drawn) [Compound B44]
IC50 [1]: < 100 nM
DC50 (IKZF2): 1 to 10 nM
Dmax (IKZF2): > 80%
DC50 (IKZF1): 100 to 1000 nM
Dmax (IKZF1): 20 to 40%

O=C1CC[C@H](N2Cc3c(ccc4c3OCC43CCN(Cc4ccc5c(c4)C(=O)NC5)CC3(F)F)C2=O)C(=O)N1 (stereo partly drawn) [Compound B31, (3S)-3-(3′,3′-difluoro-6-oxo-1′-((3-oxoisoindolin-5-yl)methyl)-6,8-dihydro-2H,7H-spiro[furo[2,3-e]isoindole-3,4′-piperidin]-7-yl)piperidine-2,6-dione]
IC50 [1]: 100 to 500 nM
DC50 (IKZF2): 1 to 10 nM
Dmax (IKZF2): 60 to 80%
DC50 (IKZF1): > 1000 nM
Dmax (IKZF1): < 20%

Cn1cc2ccc(CN3CCC4(COc5c4ccc4c5CN([C@H]5CCC(=O)NC5=O)C4=O)C(F)(F)C3)cc2n1 (stereo partly drawn) [Compound B35, (3S)-3-(3′,3′-difluoro-1′-((2-methyl-2H-indazol-6-yl)methyl)-6-oxo-6,8-dihydro-2H,7H-spiro[furo[2,3-e]isoindole-3,4′-piperidin]-7-yl)piperidine-2,6-dione]
IC50 [1]: < 100 nM
DC50 (IKZF2): 1 to 10 nM
Dmax (IKZF2): 60 to 80%
DC50 (IKZF1): > 1000 nM
Dmax (IKZF1): < 20%

Cn1ncc2c(CN3CCC4(COc5c4ccc4c5CN([C@H]5CCC(=O)NC5=O)C4=O)C(F)(F)C3)cccc21 (stereo partly drawn) [Compound B43, (3S)-3-(3′,3′-difluoro-1′-((1-methyl-1H-indazol-4-yl)methyl)-6-oxo-6,8-dihydro-2H,7H-spiro[furo[2,3-e]isoindole-3,4′-piperidin]-7-yl)piperidine-2,6-dione]
IC50 [1]: 1000 to 5000 nM
DC50 (IKZF2): 1 to 10 nM
Dmax (IKZF2): 60 to 80%
DC50 (IKZF1): > 1000 nM
Dmax (IKZF1): < 20%

Cn1cc2c(CN3CCC4(COc5c4ccc4c5CN([C@H]5CCC(=O)NC5=O)C4=O)C(F)(F)C3)cccc2n1 (stereo partly drawn) [Compound B42, (3S)-3-(3′,3′-difluoro-1′-((2-methyl-2H-indazol-4-yl)methyl)-6-oxo-6,8-dihydro-2H,7H-spiro[furo[2,3-e]isoindole-3,4′-piperidin]-7-yl)piperidine-2,6-dione]
IC50 [1]: 100 to 500 nM
DC50 (IKZF2): 1 to 10 nM
Dmax (IKZF2): 60 to 80%
DC50 (IKZF1): > 1000 nM
Dmax (IKZF1): < 20%

O=C1CCC(N2Cc3c(ccc4c3OCC43CCN(Cc4ccccc4)CC3F)C2=O)C(=O)N1 (stereo not drawn) [Compound B23, 3-(1′-benzyl-3′-fluoro-6-oxo-6,8-dihydro-2H,7H-spiro[furo[2,3-e]isoindole-3,4′-piperidin]-7-yl)piperidine-2,6-dione]
IC50 [1]: 500 to 1000 nM
DC50 (IKZF2): > 1000 nM
Dmax (IKZF2): < 20%
DC50 (IKZF1): > 1000 nM
Dmax (IKZF1): < 20%

[2H]C1([2H])Oc2c(ccc3c2CN(C2CCC(=O)NC2=O)C3=O)C12CCN(Cc1cccc(-c3cnn(C)c3)c1)CC2 (stereo not drawn) [Compound B13, 3-(1′-(3-(1-methyl-1H-pyrazol-4-yl)benzyl)-6-oxo-6,8-dihydro-2H,7H spiro[furo[2,3-e]isoindole-3,4′-piperidin]-7-yl-2,2-d2)piperidine-2,6-dione]
IC50 [1]: 100 to 500 nM
DC50 (IKZF2): 1 to 10 nM
Dmax (IKZF2): 60 to 80%
DC50 (IKZF1): > 1000 nM
Dmax (IKZF1): < 20%

O=C1CC[C@H](N2Cc3c(ccc4c3OCC43CCN(Cc4cnn(S(=O)(=O)c5ccccc5Cl)c4)CC3(F)F)C2=O)C(=O)N1 (stereo partly drawn) [Compound B29, (3S)-3-(1′-((1-((2-chlorophenyl)sulfonyl)-1H-pyrazol-4-yl)methyl)-3′,3′-difluoro-6-oxo-6,8-dihydro-2H,7H-spiro[furo[2,3-e]isoindole-3,4′-piperidin]-7-yl)piperidine-2,6-dione]
IC50 [1]: < 100 nM
DC50 (IKZF2): < 1 nM
Dmax (IKZF2): > 80%
DC50 (IKZF1): 1 to 10 nM
Dmax (IKZF1): > 40%

Cn1cc(-c2cccc(CN3CCC4(CC3)COc3c4cc(C#N)c4c3CN([C@H]3CCC(=O)NC3=O)C4=O)c2)cn1 [Compound B19, (S)-7-(2,6-dioxopiperidin-3-yl)-1′-(3-(1-methyl-1H-pyrazol-4-yl)benzyl)-6-oxo-7,8-dihydro-2H,6H-spiro[furo[2,3-e]isoindole-3,4′-piperidine]-5-carbonitrile]
IC50 [1]: 1000 to 5000 nM
DC50 (IKZF2): 100 to 1000 nM
Dmax (IKZF2): 40 to 60%
DC50 (IKZF1): > 1000 nM
Dmax (IKZF1): < 20%

O=C1CC[C@H](N2Cc3c(ccc4c3OCC43CCN(Cc4cccc5[nH]ncc45)CC3(F)F)C2=O)C(=O)N1 (stereo partly drawn) [Compound B41, (3S)-3-(1′-((1H-indazol-4-yl)methyl)-3′,3′-difluoro-6-oxo-6,8-dihydro-2H,7H-spiro[furo[2,3-e]isoindole-3,4′-piperidin]-7-yl)piperidine-2,6-dione]
IC50 [1]: 100 to 500 nM
DC50 (IKZF2): 1 to 10 nM
Dmax (IKZF2): 60 to 80%
DC50 (IKZF1): 10 to 100 nM
Dmax (IKZF1): 20 to 40%
